Species: Rattus norvegicus
Assay: Open TG-GATES - Regimen: Single
Format: toxicity, organism-based, Sprague-Dawley
Parameters: regimen Single, gender Male, age 6 weeks
Details: in vivo, po, 1000 mg/kg, route gavage, dose level High; for APTT / Bas / Eos / Fbg / Hb / Ht / Lym / MCH / MCHC / MCV / Mono / Neu / PT / Plat / RBC / Ret / WBC: tissue Blood; for KIDNEY_L / KIDNEY_R / KIDNEY_TOTAL: tissue Kidney; for LIVER: tissue Liver; for A/G / ALP / ALT / AST / BUN / CRE / Ca / Cl / DBIL / GLC / IP / K / LDH / Na / PL / RALB / TBIL / TC / TG / TP / gamma-GTP: tissue Plasma

CC(=O)Nc1ccc2c(c1)Cc1ccccc1-2 [2-ACETYLAMINOFLUORENE]
TERMINAL_BW (3 h): 222.5 g
APTT (3 h): 20.1 s
Bas (3 h): 0.6%
Eos (3 h): 1%
Fbg (3 h): 233.2 mg/dL
Hb (3 h): 14.2 g/dL
Ht (3 h): 41%
Lym (3 h): 73%
MCH (3 h): 21.9 pg
MCHC (3 h): 34.7%
MCV (3 h): 63.3 fL
Mono (3 h): 3%
Neu (3 h): 21.6%
PT (3 h): 12 s
Plat (3 h): 122.7 x10_4/uL
RBC (3 h): 648.8 x10_4/ul
Ret (3 h): 7.5%
WBC (3 h): 60.1 x10_2/uL
KIDNEY_L (3 h): 1 g
KIDNEY_R (3 h): 1 g
KIDNEY_TOTAL (3 h): 2 g
LIVER (3 h): 10.4 g
A/G (3 h): 1.6
ALP (3 h): 850.2 IU/L
ALT (3 h): 41.4 IU/L
AST (3 h): 84 IU/L
BUN (3 h): 12.4 mg/dL
CRE (3 h): 0.5 mg/dL
Ca (3 h): 10.9 mg/dL
Cl (3 h): 102.4 meq/L
DBIL (3 h): 0.078 mg/dL
GLC (3 h): 218.8 mg/dL
IP (3 h): 10.5 mg/dL
K (3 h): 3.8 meq/L
LDH (3 h): 209.6 IU/L
Na (3 h): 140.8 meq/L
PL (3 h): 151.6 mg/dL
RALB (3 h): 3.6 g/dL
TBIL (3 h): 0.1 mg/dL
TC (3 h): 87.4 mg/dL
TG (3 h): 68.8 mg/dL
TP (3 h): 5.9 g/dL
gamma-GTP (3 h): 1.2 IU/L
TERMINAL_BW (6 h): 215.7 g
APTT (6 h): 19.6 s
Bas (6 h): 0.8%
Eos (6 h): 1.2%
Fbg (6 h): 227.2 mg/dL
Hb (6 h): 14.4 g/dL
Ht (6 h): 41.6%
Lym (6 h): 73.6%
MCH (6 h): 21.9 pg
MCHC (6 h): 34.6%
MCV (6 h): 63.4 fL
Mono (6 h): 1.8%
Neu (6 h): 22.8%
PT (6 h): 12.9 s
Plat (6 h): 126.1 x10_4/uL
RBC (6 h): 656.8 x10_4/ul
Ret (6 h): 7.5%
WBC (6 h): 35.4 x10_2/uL
KIDNEY_L (6 h): 0.9 g
KIDNEY_R (6 h): 0.9 g
KIDNEY_TOTAL (6 h): 1.8 g
LIVER (6 h): 9.7 g
A/G (6 h): 1.7
ALP (6 h): 1010.2 IU/L
ALT (6 h): 37.4 IU/L
AST (6 h): 72.6 IU/L
BUN (6 h): 14.4 mg/dL
CRE (6 h): 0.5 mg/dL
Ca (6 h): 10.7 mg/dL
Cl (6 h): 102 meq/L
DBIL (6 h): 0.074 mg/dL
GLC (6 h): 251.2 mg/dL
IP (6 h): 9.7 mg/dL
K (6 h): 4 meq/L
LDH (6 h): 228.6 IU/L
Na (6 h): 140.6 meq/L
PL (6 h): 133.6 mg/dL
RALB (6 h): 3.6 g/dL
TBIL (6 h): 0.1 mg/dL
TC (6 h): 83.8 mg/dL
TG (6 h): 26.6 mg/dL
TP (6 h): 5.8 g/dL
gamma-GTP (6 h): 1.4 IU/L
TERMINAL_BW (9 h): 214.2 g
APTT (9 h): 18.7 s
Bas (9 h): 0.6%
Eos (9 h): 0.6%
Fbg (9 h): 252.4 mg/dL
Hb (9 h): 14.8 g/dL
Ht (9 h): 42.6%
Lym (9 h): 68.8%
MCH (9 h): 22 pg
MCHC (9 h): 34.7%
MCV (9 h): 63.3 fL
Mono (9 h): 3.6%
Neu (9 h): 25%
PT (9 h): 13.1 s
Plat (9 h): 130.1 x10_4/uL
RBC (9 h): 673.2 x10_4/ul
Ret (9 h): 7.4%
WBC (9 h): 46.2 x10_2/uL
KIDNEY_L (9 h): 1 g
KIDNEY_R (9 h): 0.9 g
KIDNEY_TOTAL (9 h): 1.9 g
LIVER (9 h): 10.4 g
A/G (9 h): 1.5
ALP (9 h): 751.4 IU/L
ALT (9 h): 33 IU/L
AST (9 h): 64.8 IU/L
BUN (9 h): 13.4 mg/dL
CRE (9 h): 0.5 mg/dL
Ca (9 h): 11.1 mg/dL
Cl (9 h): 104.6 meq/L
DBIL (9 h): 0.066 mg/dL
GLC (9 h): 225.4 mg/dL
IP (9 h): 9.7 mg/dL
K (9 h): 4.2 meq/L
LDH (9 h): 196.8 IU/L
Na (9 h): 141.4 meq/L
PL (9 h): 160.4 mg/dL
RALB (9 h): 3.6 g/dL
TBIL (9 h): 0.1 mg/dL
TC (9 h): 90 mg/dL
TG (9 h): 34.4 mg/dL
TP (9 h): 6 g/dL
gamma-GTP (9 h): 1 IU/L
TERMINAL_BW (24 h): 212.5 g
APTT (24 h): 20.3 s
Bas (24 h): 0.4%
Eos (24 h): 0.8%
Fbg (24 h): 209.6 mg/dL
Hb (24 h): 14.7 g/dL
Ht (24 h): 42.1%
Lym (24 h): 67.2%
MCH (24 h): 21.8 pg
MCHC (24 h): 35%
MCV (24 h): 62.3 fL
Mono (24 h): 2.8%
Neu (24 h): 28%
PT (24 h): 15 s
Plat (24 h): 140.3 x10_4/uL
RBC (24 h): 675.8 x10_4/ul
Ret (24 h): 7%
WBC (24 h): 79.6 x10_2/uL
KIDNEY_L (24 h): 1 g
KIDNEY_R (24 h): 1 g
KIDNEY_TOTAL (24 h): 1.9 g
LIVER (24 h): 9.7 g
A/G (24 h): 1.6
ALP (24 h): 787.8 IU/L
ALT (24 h): 32.4 IU/L
AST (24 h): 78.8 IU/L
BUN (24 h): 11.6 mg/dL
CRE (24 h): 0.6 mg/dL
Ca (24 h): 10 mg/dL
Cl (24 h): 105 meq/L
DBIL (24 h): 0.1 mg/dL
GLC (24 h): 190.6 mg/dL
IP (24 h): 8.7 mg/dL
K (24 h): 4.2 meq/L
LDH (24 h): 252.4 IU/L
Na (24 h): 140.8 meq/L
PL (24 h): 116.8 mg/dL
RALB (24 h): 3.3 g/dL
TBIL (24 h): 0.2 mg/dL
TC (24 h): 59.6 mg/dL
TG (24 h): 67.4 mg/dL
TP (24 h): 5.3 g/dL
gamma-GTP (24 h): 1.2 IU/L
